Data from patent publication US20130109861A1, “TELOMERASE INHIBITORS AND A METHOD FOR THE PREPARATION THEREOF” (GOSUDARSTVENNOE UCHEBNO-NAUCHNOE UCHREZHDENIE KHIMICHESKIJJ …, priority 2010, published 2013).

What was measured:
telomerase = target: T1, telomerase (Homo sapiens, UniProt O14746); assay: Inhibition of telomerase activity by TRAP-assay (telomeric repeat amplification, extracts of cervical carcinoma cell lines SiHa, C33A, CaSki, HeLa); assay type: biochemical; conditions: concentration at which inhibition of telomerase activity is 50%
T1 construct: telomeric repeats added to an oligonucleotide by telomerase in the cell extract; endogenous in cells; host or cells: SiHa, C33A, CaSki and HeLa cervical carcinoma cell extracts (CHAPS lysis)
Protocol: To test the inhibition of telomerase compounds prepared in this way, we used the method of amplification added telomeric repeats (TRAP-analysis). TRAP-analysis is a standard method for determining the activity of telomerase, due to some modification this method could be semi quantitative. The choice of method for detection of telomerase activity was determined by its wide coverage in the worlds literature, almost sensitivity, as well as the availability of equipment and reagents.
Telomeric repeats amplification protocol can be divided into three main steps: primer extension, amplification of the resulting product (s) and detection. In step lengthening telomeric repeats added to an oligonucleotide by telomerase in the cell extract. Telomerase recognizes it as a substrate (TS). In step of amplification of extension products of TS oligonucleotide by telomerase false signals may appear due to amplification of telomeres of chromosomes possibly have contained in the cell extract. To avoid this, the 5′-end of the oligonucleotide TS has no telomeric sequence, which prevents it to contact with telomeres, but is recognized as a telomerase substrate. Since human telomerase adds a series repeats with six nucleotides, the resulting lengthening of TS oligonucleotide by telomerase set of DNA fragments that differ in length synthesized. […]

C=CCN1C(=O)/C(=C/c2ccccn2)N=C1SCCSC1=N/C(=C\c2ccccn2)C(=O)N1CC=C [Example 3, (5Z,5′Z)-2,2′-(ethan-1,2-diyldisulfanyldiyl)bis(5-(pyridine-2-ylmethylene)-3-allyl-3,5-dihydro-4H-imidazole-4-on)]
IC50 (telomerase): 2 µM
melting point: 187 °C
